The values that follow come from patent US20250144050A1, “AMINOTHIOL-CONJUGATES, COMPOSITIONS, AND METHODS OF USE THEREOF” (THE BURLINGTON HC RESEARCH GROUP, INC., priority 2021, published 2025).

The term TGI denotes the concentration giving total growth inhibition. Read a low TGI as greater sensitivity of the cells. Broadly, the IC50 is the concentration needed to halve the response being measured. A lower IC50 goes with greater potency.

For data set [1] the following is noted: some in vitro studies; cited from earlier work.
Data set [2] relates to C3H/10T1/2 cells. The conditions noted are these: 1 milliM; before, during, and after radiation exposure; cited from earlier work.
The conditions of data set [3]: injection at 500-910 mg/m^2; cited from earlier work.
The conditions of data set [4]: mice, cited from earlier work.
The test system of data set [5] is radiation-induced tumors. The conditions noted are these: WR2721 plus radiation (87% with radiation alone); cited from earlier work.
The conditions of data set [6]: cited from earlier work.
Data set [7] has as its system mouse splenocytes. The conditions noted are these: cited from earlier work.
Data set [8] concerns Sa-NH sarcoma cells. The conditions noted are these: 50 mg/kg every other day for 6 days; delayed from 12 days; cited from earlier work.
For data set [9], the system named is human cancer cell lines. Put plainly: CyQUANT cell viability assay, 48-hour exposure, panel averages. The conditions noted are these: for GI50: Homo sapiens, 48 h. The procedure:
After drug treatments, fluorescence readings from 96-well plates were obtained using the CyQUANT dye and compared to standard curves for each cell line to determine cell viability. […] Trypan blue exclusion was used to estimate cell numbers in a few pilot experiments and was thereafter applied to confirm cell death.
A series of experiments was conducted to assess the relative efficacy of 4SP65, 1LP65, and amifostine as single agents in the same human cancer cell lines. First, the effectiveness of 4SP65 was tested against 15 cancer cell lines derived from seven tissues. […] The effectiveness of 0 to ≤500 μM amifostine was tested in sets of cancer cell lines reported to have either medium, high, or no expression of alkaline phosphatase.
Trans. R Soc. Lond. […] Using cell numbers based on fluorescence measurements and standard curves [time zero, (Tz), control growth, (C), and test growth in the presence of drug at five or more concentration levels (Ti)], the percentage growth was calculated at each drug concentration level. The percentage of growth inhibition was calculated as follows:
The LC50/99 was calculated using Equation 2=−50 and Eq. 2=−99, respectively. […] For NHMECs, the relationships between drug exposure levels and fluorescence units were used to define dose-response metrics. The selectivity index (SI) values for individual drug treatments were calculated as IC50 levels in NHMECs divided by the IC50 values in cancer cell lines.

The conditions of data set [10]: 400 mg/kg; 206 cGy gamma rays; female mice; cited from earlier work.
For data set [11] the following is noted: Children; cited from earlier work.
Data set [12] relates to angiostatin. The conditions noted are these: cited from earlier work.
Data set [13] deals with H1975 cells. The conditions noted are these: H1975, each drug alone, 48 h.
Protocol: (§1) Trypan Blue exclusion was applied as a complementary confirmation probe for cell death.
(§2) Statistical comparisons of differences in individual dose-response metrics between individual/paired drug treatments and various cell lines were conducted using the Student's t-test, with P-values <0.05 considered significant.
(§3) Relative cell growth inhibition values for differing levels each drug alone and in combination were input into SynergyFinder to generated dose-response curves for each drug alone, to produce a dose-response matrix, to visualize the distribution of areas of differing degrees of synergism in a 2-dimension heatmap and 3-dimension volcano plot, and to calculate average and maximum synergy scores in selected human cancer cell lines. […] Synergy scores <10 means that the interaction between two drugs was likely to be antagonistic; scores from −10 to 10 means the interaction between two drugs was likely to be additive; and scores >10 means the interaction between two drugs was likely to be synergistic.
The conditions of data set [14]: cited from earlier work. The source holds these as a separate data set.
Data set [15] deals with A549 NSCLC cells.
Protocol: as §1, §2, §3
Data set [16] concerns PC3 cells. The conditions noted are these: cited from earlier work.
Data set [17] relates to SKOV3 ovarian cancer cells. The class given is cell-based.
Protocol: as §1, §2, §3
Data set [18] concerns NCI-H460 NSCLC cells. The class given is cell-based. The conditions noted are these: NCI-H460; each drug alone; 48 h.
Protocol: as §1, §2, §3
For data set [19], the system named is TOV21G ovarian cancer cells. The format is cell-based. The conditions noted are these: TOV21G, 48 h.
Protocol: as §1, §2, §3
The subject of data set [20] is metastatic melanoma. The conditions noted are these: patients with advanced malignant melanoma; cited from earlier work.
Data set [21] deals with MDA-MB-231 cells. The conditions noted are these: cited from earlier work.
Data set [22] has as its system PPM-Mill malignant mesothelioma cells. The class given is cell-based. The conditions noted are these: PPM-Mill; each drug alone; 48 h.
Protocol: as §1, §2, §3
The test system of data set [23] is HMESO-1 malignant mesothelioma cells. The format is cell-based. The conditions noted are these: HMESO-1; each drug alone; 48 h.
Protocol: as §1, §2, §3
Where [24] appears, read: each drug alone, 48 h, gefitinib series.
[25] abbreviates: each drug alone, 48 h, cisplatin series.

Like-named read-outs stand apart in the source and are kept apart here.

On to `NCCCNCCS` [WR1065, 2-(3-aminopropyl)aminoethanethiol], for which the lowest efficacious concentration in data set [1] was 0.4 µM. Moreover, in [2], the protection factor is on record as 3.23. Moreover, the peak plasma level in data set [3] was about 100 µM. The “plasma T1/2” value in [3] was about 10 min. Besides, the “maximally tolerated dose (MTD)” value is reported as 432 mg/kg BW in [4] (i.p.) and 720 mg/kg BW in data set [4] (p.o.).

Turning to `NCCCNCCSP(=O)(O)O` [amifostine], the mice developing tumors in data set [5] is given as 26%. The “level with no observable cytotoxicity” value in [6] (kidney (in vivo)) was > 17,000 picomol/10 (6) cells; in [6] (liver (in vivo)), > 7400 picomol/10 (6) cells; in data set [6] (small intestine (in vivo)), > 3000 picomol/10 (6) cells. Also, in data set [7], the “reduction of cyclophosphamide-induced HPRT mutations” value is recorded as 8 fold. For the same molecule, the “days for tumors to reach ideal size for amputation” value in data set [8] is listed as 13 days. Moreover, the GI50 was 47 to 81 µM in data set [9] (read-out: GI50, range, four of 14 cell lines with moderate/high alkaline phosphatase expression, 48 hours); 113 to 378 µM in [9] (read-out: GI50, range, seven of 14 cell lines, 48 hours); over 500 µM in data set [9] (read-out: exposure failing to induce growth inhibitory effects (GI50), three of 14 cell lines, 48 hours). Moreover, in [9] (any of 14 cell lines, 48 hours), the “exposure without cytolytic effects (LC50/LC99)” value was over 500 µM. Moreover, the “concentration inducing TGI level effects” value in [9] (only HCC38 and PC3) was over 100 µM. The “extension of total life expectancy” value in data set [10] is reported as 65 days. Further, the “single dose with no untoward effects” value in data set [11] was “up to 2700 mg/m2”. The “change of angiostatin levels” value in data set [12] (200 mg/ml (instead of 50 mg/ml)) was “did not change angiostatin levels”. In addition, the “increase of serum angiostatin levels” value in data set [12] (mouse, in vivo) is on record as 4 fold.

Take `CNCCCNCCCS` [WR151326]: the protection factor in data set [2] was 1.8.

Consider `COc1cc2ncnc(Nc3ccc(F)c(Cl)c3)c2cc1OCCCN1CCOCC1` [gefitinib, reference compound], for which the LC99 result in data set [13] and in [15] (setting [24]) was “ND (>25) μM” in each case. Moreover, the total growth inhibition concentration (TGI) in [13] was over 25 µM; in [13] (listed as GEF), “ND (>25) μM”; in data set [15] (setting [24]) it was over 25 µM; in data set [15] (each drug alone, 48 h, gefitinib series, listed as GEF), “ND (>25) μM”. Moreover, the Cmax in [14] (250 mg daily, cancer patients, read-out: Cmax plasma concentrations) is 500 to 1000 nM. For the same molecule, the figures for the trough levels in data set [14] (after 3 days of treatment) and in data set [14] (after 8 days of treatment) were 0.257 to 4.50 µM and 0.282 to 6.55 µM, respectively. Moreover, the elimination half-life in data set [14] (in vivo) is 48 h.

As for `CC(=O)O[C@H]1C(=O)[C@@]2(C)[C@H]([C@H](OC(=O)c3ccccc3)[C@]3(O)C[C@H](OC(=O)[C@H](O)[C@@H](NC(=O)c4ccccc4)c4ccccc4)C(C)=C1C3(C)C)[C@]1(OC(C)=O)CO[C@@H]1C[C@@H]2O` [paclitaxel, reference compound], in data set [16], the GI50 was 36.4 µM. Also, the “fold lower dose than 1LP65 at the GI50 level” value in data set [17] (SKOV3 cells) is reported as 77 fold.

Regarding `N.N.[Cl][Pt][Cl]` [cisplatin, reference compound], the GI50 in data set [18] was 3.1 ± 0.1 µM; in data set [19] (each drug alone), 2200 ± 400 nM; in data set [15] (setting [25]), 3.5 ± 0.7 µM; in data set [21], 22.4 µM; in data set [17] (SKOV3, each drug alone, 48 h) it was 5.3 ± 0.4 µM; in data set [22] it was 27.2 ± 3.4 µM. In data set [23], this molecule showed a GI50 of 3000 ± 400 nM. The IC50 in data set [18] was 4 ± 0.1 µM; in [19] (each drug alone), 3000 ± 300 nM; in data set [15] (setting [25]), 4.7 ± 0.8 µM; in data set [17] (SKOV3, each drug alone, 48 h), 6.7 ± 0.6 µM; in data set [22], 40.5 ± 8.1 µM; in [23], 8.6 ± 1.1 µM. The LC99 entry is “ND (>15) μM” in data set [18]; 17.2 µM in data set [19] (each drug alone); 17.2 ± 5.2 µM in data set [19] (each drug alone, listed as DDP); 24.4 ± 2.6 µM in data set [15] (setting [25]); “ND (>21) μM” in data set [17] (SKOV3, each drug alone, 48 h); “ND (>100) μM” in data set [22]. Moreover, the LC99 result in data set [23] is “ND (>15) μM”. In addition, the TGI result is “ND (>15) μM” in data set [18]; 6.7 ± 0.3 µM in data set [19] (each drug alone); 8.2 ± 1.0 µM in data set [15] (setting [25]); “ND (>21) μM” in [17] (SKOV3, each drug alone, 48 h); “ND (>100) μM” in data set [22]; 6.7 ± 0.7 µM in data set [23]. Moreover, the “LC99, amount of each drug in combination” value in data set [19] (4SP65-cisplatin combined) was found to be 5.9 µM; in [15] (4SP65-cisplatin combined, 48 h), 7 µM. Besides, the partial response in [20] is 10%. For the same molecule, the “reduction in starting cell numbers” value in data set [15] (6 μM cisplatin alone) is 56%.
